Measurements published in publication PMC12091851, “Replacing a Cereblon Ligand by a DDB1 and CUL4 Associated Factor 11 (DCAF11) Recruiter Converts a Selective Histone Deacetylase 6 PROTAC into a Pan‐Degrader” (Chemmedchem, 2025).

Molecular target: T1, HDAC6 (Homo sapiens, UniProt Q9UBN7)
T1 sequence (Q9UBN7 1-1215): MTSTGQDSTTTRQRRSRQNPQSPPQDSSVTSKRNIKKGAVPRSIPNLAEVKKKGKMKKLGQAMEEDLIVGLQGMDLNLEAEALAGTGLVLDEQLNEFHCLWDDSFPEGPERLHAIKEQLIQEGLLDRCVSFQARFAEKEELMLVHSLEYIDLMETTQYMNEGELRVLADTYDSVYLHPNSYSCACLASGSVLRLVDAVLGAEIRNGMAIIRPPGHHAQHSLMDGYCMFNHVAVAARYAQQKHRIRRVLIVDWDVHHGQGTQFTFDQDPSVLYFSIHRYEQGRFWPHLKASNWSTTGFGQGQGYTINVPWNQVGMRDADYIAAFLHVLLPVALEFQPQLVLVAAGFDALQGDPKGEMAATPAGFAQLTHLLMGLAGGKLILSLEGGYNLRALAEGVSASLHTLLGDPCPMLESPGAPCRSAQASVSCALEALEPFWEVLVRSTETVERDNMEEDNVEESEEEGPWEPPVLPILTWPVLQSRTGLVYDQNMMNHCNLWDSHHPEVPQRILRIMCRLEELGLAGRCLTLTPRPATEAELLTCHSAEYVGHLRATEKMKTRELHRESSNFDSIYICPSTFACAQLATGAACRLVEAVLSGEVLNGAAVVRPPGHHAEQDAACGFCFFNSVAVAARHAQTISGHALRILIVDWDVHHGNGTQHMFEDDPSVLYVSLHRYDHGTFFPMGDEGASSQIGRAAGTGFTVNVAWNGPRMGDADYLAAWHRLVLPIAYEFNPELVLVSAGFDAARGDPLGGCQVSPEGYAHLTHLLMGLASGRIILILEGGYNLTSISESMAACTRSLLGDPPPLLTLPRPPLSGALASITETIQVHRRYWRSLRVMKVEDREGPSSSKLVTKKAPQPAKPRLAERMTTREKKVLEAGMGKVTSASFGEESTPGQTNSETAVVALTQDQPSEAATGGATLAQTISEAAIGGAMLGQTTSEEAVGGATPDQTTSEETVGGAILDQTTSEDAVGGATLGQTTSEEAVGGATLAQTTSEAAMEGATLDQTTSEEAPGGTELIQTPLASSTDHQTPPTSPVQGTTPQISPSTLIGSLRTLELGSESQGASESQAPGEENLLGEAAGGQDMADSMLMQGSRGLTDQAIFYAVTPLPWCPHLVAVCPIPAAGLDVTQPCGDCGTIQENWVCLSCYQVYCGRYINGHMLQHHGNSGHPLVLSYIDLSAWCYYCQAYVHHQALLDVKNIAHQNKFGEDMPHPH
Assay: Simple Western immunoassay, HDAC6 levels in U-87MG cell lysates
Assay type: cell-based
Set-up: endogenous in cells; host or cells: MM.1S
Conditions: 10 μM, 24 h
Method: Figure S5. Analysis of HDAC1 and 6 degradation in U-87MG cells. Simple western immunoassay analysis of U-87MG cell lysates. The cells were treated with the indicated compound (10 µM) or vehicle (DMSO) for 24 h. Top: Quantification of HDAC levels, presented as mean ± standard deviation of n = 2 biological replicates; Significance compared to vehicle: ns = p≥0.05 and *** = p≤0.001. Bottom:
Representative images of n = 2 biological replicates.
(1 picture or pasted object on this page, not shown here)
2. Biological Experiments
No unexpected or unusually high safety hazards were encountered.
The human multiple myeloma cell line MM.1S (CRL-2974) was obtained from American Type Culture Collection (ATCC, Manassas, VA, USA). […]
Louis, MO, USA) according to manufacturer´s instructions. Protein content was determined by Pierce™ BCA Protein Assay Kit (Catalog# 23225, Thermo Fisher Scientific Inc.) according to manufacturer´s guidelines. […]
Fluorescence Separation 8x25 Capillary Cartridges (Catalog# SM-FL004-1, Protein Simple, Bio-Techne, Minneapolis, MN, USA) were used for separation and the Anti-Mouse Detection Module (Catalog# DM-002, Protein Simple) was used for detection with addition of 20x Anti-Rabbit HRP […]
Conjugate (Catalog# 043-426, Protein Simple) according to manufacturer´s instructions. […] Evaluation and quantification was performed with the compass software (6.2.0, Protein Simple). […]

- HDAC6 degradation in U-87MG cells: significant HDAC1 and 6 degradation
Compound: O=C(CCCCCCNC(=O)c1ccc(NC(=O)CCCCCCCCCCCN(C(=O)CCl)C(C(=O)NCc2ccccc2)c2ccc(Cl)c(Cl)c2)cc1)NO (stereo not shown) [Compound 1j]
